Reference: article PMC10498667 (Chemical Science, 2023)

How the values were obtained:
[1] = target: T1, 15N-labeled Aβ42 (Homo sapiens, UniProt P05067); experiment: 2D SOFAST-HMQC NMR with 15N-labeled Aβ42; assay type: binding; conditions: 15N-Aβ42 33 μM; 6 100 μM; 10 °C
T1 construct: the human Ab42 peptide was artificially constructed using codons; extra Met residue (start codon) before Asp1 (N); made in house; host or cells: E. coli BL21 (DE3) pLysS, pAED4 vector
Description: Cell viability was determined by the MTT assay [MTT = 3-(4,5-dimethylthiazol-2-yl)-2,5-diphenyltetrazolium bromide]. Cells were seeded in a 96-well plate (15,000 cells/100 µL) and treated with the samples {[flavonoid] = 5, 10, 25, 50, and 100 µM (1% v/v DMSO)}. After 24 h incubation, 5Y cells were washed with phosphate buffered saline (PBS; GIBCO). MTT [5 mg/mL in PBS (pH 7.4, GIBCO); 25 µL] was added to each well and the plate was incubated for 4 h at 37 °C. The formazan produced by cells was solubilized using an acidic solution of DMF (pH 4.5, 50% v/v, aq) and sodium dodecyl sulfate (SDS; 20% w/v) overnight at room temperature in the dark. Absorbance was measured at 600 nm by a microplate reader (Molecular Devices). Cell viability, relative to that of the cells containing an equivalent amount of DMSO, was calculated.
The measurements were conducted in triplicate. […]
loading into the instrument. […]
The initial delay and the reference power were 60 s and 10 µcal/s, […]
The ITC thermogram and binding isotherm were shown after the subtraction of the dilution heat.
The binding isotherm after baseline correction was fitted to the one-set-of-sites binding model using the MicroCal Origin software (version 7.0).
Expression and Purification of 15N-labeled Recombinant Ab42. […]

[2] = target: T2, Aβ42 (Homo sapiens, UniProt P05067); experiment: ESI-MS and ESI-MS2 of Aβ42 treated with 6; conditions: 6 200 μM, 3 h
T2 construct: purchased Peptide Institute, Inc. (Osaka, Japan)
From the text: (§1) To identify the modifications of Aβ in both the absence and presence of Cu(II) upon treatment of 6, we carried out the studies employing electrospray ionization mass spectrometry (ESI-MS). In the sample containing metal-free Aβ42 and 6, the addition of +16 Da into the +3-charged Aβ42 monomer, assigned to be the oxidized monomeric Aβ42, was detected (Fig. 7a), while such oxidation was not observed under anaerobic conditions (Fig. S20 ^†). To determine the oxidized amino acid residues in Aβ42, the b fragments generated by collision-induced dissociation were analyzed by tandem MS (ESI-MS^2). As illustrated in Fig. 7b and S21a, ^† the Met35 residue was measured to be the oxidation site in the singly oxidized Aβ42. […] Similar to metal-free Aβ42, the oxidation of Aβ40 at the Met35 residue was monitored by incubation with 6 (Fig. S22a, b and S23a ^†). […]
(§2) 2D 1H−15N SOFAST-HMQC NMR Experiments. […] Experimental data were processed with NMRpipe29 and Sparky 3.115.30 The 1H and 15N assignments of 15N-labeled Ab were determined based on the previous results.21,31 The chemical shift perturbation was calculated following the equation (eq 4).32 Note that DdH and DdN represent the alterations in the chemical shifts of 1H and 15N of 15N-labeled Ab, respectively. […]

[3] = target: T3, Aβ40 (Homo sapiens, UniProt P05067); experiment: ESI-MS and ESI-MS2 of Aβ40 treated with 6; conditions: 6 200 μM, 3 h
T3 construct: Ab40 ([…]-; purchased Peptide Institute, Inc. (Osaka, Japan)
From the text: as §1, §2

T2 sequence (P05067 672-713 limits assumed): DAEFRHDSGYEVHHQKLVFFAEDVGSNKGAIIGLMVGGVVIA
T3 sequence (P05067 672-711 limits assumed): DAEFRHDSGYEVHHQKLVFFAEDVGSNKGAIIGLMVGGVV
T1 sequence (P05067 671-713 limits assumed): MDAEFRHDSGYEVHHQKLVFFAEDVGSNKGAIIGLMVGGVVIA

SMILES: O=c1c(-c2ccc(O)c(O)c2)coc2cc(O)c(O)c(O)c12 [compound 6, 3-(3,4-dihydroxyphenyl)-5,6,7-trihydroxy-4H-chromen-4-one]
- decrease of overall NMR peak intensity [1]: ca. 20%
- plausible oxidation sites in singly oxidized Aβ ([2]; Cu(II)–Aβ42, Cu(II) 100 μM): His13, His14, and Met35
- oxidation site in singly oxidized Aβ ([2]; metal-free Aβ42 100 μM, aerobic): Met35
- plausible oxidation sites in singly oxidized Aβ ([3]; Cu(II)–Aβ40, Cu(II) 100 μM): His13, His14, and Met35
- oxidation site in singly oxidized Aβ ([3]; metal-free Aβ40 100 μM): Met35
